Assay results as given in ChEMBL document CHEMBL1157179, “A CoMSIA study on the adenosine kinase inhibition of pyrrolo[2,3-d]pyrimidine nucleoside analogues” (Bioorg Med Chem, 2008).

The compounds below were run against Adenosine kinase (Homo sapiens) (UniProt P55263).
Chain of Adenosine kinase (Homo sapiens) (P55263 2-362 limits assumed): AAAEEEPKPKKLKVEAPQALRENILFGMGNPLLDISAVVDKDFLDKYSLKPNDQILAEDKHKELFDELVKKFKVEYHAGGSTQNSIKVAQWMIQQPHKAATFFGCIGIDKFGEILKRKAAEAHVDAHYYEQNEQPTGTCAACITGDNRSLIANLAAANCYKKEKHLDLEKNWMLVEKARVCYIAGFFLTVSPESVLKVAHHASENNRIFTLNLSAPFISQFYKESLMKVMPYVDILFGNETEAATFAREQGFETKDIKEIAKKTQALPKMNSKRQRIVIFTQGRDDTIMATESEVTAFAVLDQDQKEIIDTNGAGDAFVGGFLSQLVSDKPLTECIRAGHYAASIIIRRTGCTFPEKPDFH
Description: Inhibition of adenosine kinase

SMILES	log(10'3/IC50)
COC[C@H]1O[C@@H](n2cc(I)c3c(N)ncnc32)[C@H](O)[C@@H]1O	2.92
[N-]=[N+]=NC[C@H]1O[C@@H](n2cc(I)c3c(Cl)ncnc32)[C@H](O)[C@@H]1O	5.05
CSc1cn([C@@H]2O[C@H](C)[C@@H](O)[C@H]2O)c2ncnc(N)c12	2.87
[N-]=[N+]=NC[C@H]1O[C@@H](n2cc(Br)c3c(Cl)ncnc32)[C@H](O)[C@@H]1O	4
CSc1cn([C@@H]2O[C@H](C)[C@@H](O)[C@H]2O)c2ncnc(Cl)c12	4.15
C[C@H]1O[C@@H](n2cc(Br)c3c(Cl)ncnc32)[C@H](O)[C@@H]1O	4.3
C=C[C@H]1O[C@@H](n2cc(I)c3c(N)ncnc32)[C@H](O)[C@@H]1O	4
CC[C@H]1O[C@@H](n2cc(Br)c3c(N)ncnc32)[C@H](O)[C@@H]1O	3.3
N#Cc1cn([C@@H]2O[C@H](CO)[C@@H](O)[C@H]2O)c2ncnc(N)c12	3.51
Nc1ncnc2c1c(Cl)cn2[C@@H]1O[C@H](CO)[C@@H](O)[C@H]1O	3.68
CSc1ncnc2c1c(I)cn2[C@@H]1O[C@H](C)[C@@H](O)[C@H]1O	4.35
NC[C@H]1O[C@@H](n2cc(Br)c3c(N)ncnc32)[C@H](O)[C@@H]1O	6.7
NC[C@H]1O[C@@H](n2cc(I)c3c(N)ncnc32)[C@H](O)[C@@H]1O	6.22
C[C@H]1O[C@@H](n2cc(I)c3c(Cl)ncnc32)[C@H](O)[C@@H]1O	5.52
CNc1ncnc2c1c(I)cn2[C@@H]1O[C@H](CO)[C@@H](O)[C@H]1O	2.92
C[C@H]1O[C@@H](n2cc(C#N)c3c(N)ncnc32)[C@H](O)[C@@H]1O	3.51
C=CCSc1ncnc2c1c(I)cn2[C@@H]1O[C@H](C)[C@@H](O)[C@H]1O	2.55
C[C@H]1O[C@@H](n2cc(I)c3c(S)ncnc32)[C@H](O)[C@@H]1O	2.19
OC[C@H]1O[C@@H](n2cc(I)c3c(Cl)ncnc32)[C@H](O)[C@@H]1O	4.62
CC[C@H]1O[C@@H](n2cc(I)c3c(N)ncnc32)[C@H](O)[C@@H]1O	4.22
Cc1cn([C@@H]2O[C@H](C)[C@@H](O)[C@H]2O)c2ncnc(Cl)c12	3.27
NC[C@H]1O[C@@H](n2cc(I)c3c(Cl)ncnc32)[C@H](O)[C@@H]1O	7
C[C@H]1O[C@@H](n2cc(I)c3c(SCc4ccccc4)ncnc32)[C@H](O)[C@@H]1O	3
NC[C@H]1O[C@@H](n2ccc3c(N)ncnc32)[C@H](O)[C@@H]1O	1.89
CCCCSc1ncnc2c1c(I)cn2[C@@H]1O[C@H](C)[C@@H](O)[C@H]1O	3
[N-]=[N+]=NC[C@H]1O[C@@H](n2cc(Br)c3c(N)ncnc32)[C@H](O)[C@@H]1O	4.2
C[C@H]1O[C@@H](n2cc(I)c3c(SCc4ccc([N+](=O)[O-])cc4)ncnc32)[C@H](O)[C@@H]1O	2.7
Nc1ncnc2c1c(Br)cn2[C@@H]1O[C@H](CO)[C@@H](O)[C@H]1O	3.92
[N-]=[N+]=NC[C@H]1O[C@@H](n2cc(I)c3c(N)ncnc32)[C@H](O)[C@@H]1O	4.46
